From patent US6403575B1, “3-Pyridyl enantiomers and their use as analgesics” (Abbott Laboratories, priority 1996, dated 2002)
Where a name gives a salt, the structure may show the parent alone. Read-outs that look alike come from different tables or passages of the source.

Tests used:
[1] = target: T1, neuronal nicotinic acetylcholine receptors (Rattus norvegicus, UniProt P09483+P12390); test: [3H]-cytisine binding to neuronal nicotinic acetylcholine receptors, whole rat brain membranes
T1 construct: crude synaptic membrane preparations from whole rat brain; from tissue; host or cells: whole rat brain, crude synaptic membranes
T1 sequence (P09483 31-630): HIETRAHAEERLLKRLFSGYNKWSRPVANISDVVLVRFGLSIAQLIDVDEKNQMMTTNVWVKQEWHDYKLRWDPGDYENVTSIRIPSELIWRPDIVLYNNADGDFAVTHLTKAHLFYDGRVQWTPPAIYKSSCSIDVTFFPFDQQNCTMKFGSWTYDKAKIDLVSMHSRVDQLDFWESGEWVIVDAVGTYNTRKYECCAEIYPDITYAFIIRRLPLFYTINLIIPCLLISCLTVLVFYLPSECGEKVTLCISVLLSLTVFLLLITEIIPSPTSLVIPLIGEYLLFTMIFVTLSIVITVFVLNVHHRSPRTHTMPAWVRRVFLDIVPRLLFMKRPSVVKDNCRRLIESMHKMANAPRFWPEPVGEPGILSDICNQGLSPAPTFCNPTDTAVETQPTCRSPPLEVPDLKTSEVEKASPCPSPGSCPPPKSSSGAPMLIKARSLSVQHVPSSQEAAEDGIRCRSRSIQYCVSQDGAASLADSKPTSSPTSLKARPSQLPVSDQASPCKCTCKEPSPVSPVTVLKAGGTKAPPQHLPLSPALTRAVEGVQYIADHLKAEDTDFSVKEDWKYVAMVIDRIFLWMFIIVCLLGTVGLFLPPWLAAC
T1 sequence (P12390 25-500): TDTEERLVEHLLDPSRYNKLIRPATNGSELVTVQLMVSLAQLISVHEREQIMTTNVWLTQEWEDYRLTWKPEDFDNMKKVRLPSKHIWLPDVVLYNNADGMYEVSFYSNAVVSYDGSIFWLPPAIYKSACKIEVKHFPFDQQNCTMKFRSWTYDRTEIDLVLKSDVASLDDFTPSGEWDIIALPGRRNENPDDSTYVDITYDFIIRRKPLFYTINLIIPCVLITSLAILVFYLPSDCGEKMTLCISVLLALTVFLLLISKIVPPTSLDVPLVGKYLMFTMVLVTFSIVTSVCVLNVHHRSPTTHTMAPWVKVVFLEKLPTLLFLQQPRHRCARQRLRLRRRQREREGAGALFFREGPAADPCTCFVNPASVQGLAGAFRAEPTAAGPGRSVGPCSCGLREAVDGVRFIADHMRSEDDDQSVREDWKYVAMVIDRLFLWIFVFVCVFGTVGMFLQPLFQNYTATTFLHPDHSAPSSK
Method: Protocol for Determination of Nicotinic Acetylcholine Channel Receptor Binding Potencies of Ligands
Binding of [^3H]-cytisine ([^3H]-CYT) to neuronal nicotinic acetylcholine receptors was accomplished using crude synaptic membrane preparations from whole rat brain (Pabreza et al., Molecular Pharmacol., 1990, 39:9). Washed membranes were stored at −80° C. prior to use. Frozen aliquots were slowly thawed and resuspended in 20 volumes of buffer (containing: 120 mM NaCl, 5 mM KCl, 2 mM MgCl2, 2 mM CaCl2 and 50 mM Tris-Cl, pH 7.4 @4° C.). After centrifuging at 20,000×g for 15 minutes, the pellets were resuspended in 30 volumes of buffer. Homogenate (containing 125-150 μg protein) was added to triplicate tubes containing concentrations of test compound and [^3H]-CYT (1.25 nM) in a final volume of 500 μL. Samples were incubated for 60 minutes at 4° C., then rapidly filtered through Whatman GF/B filters presoaked in 0.5% polyethyleneimine using 3×4 mL of ice-cold buffer. The filters are counted in 4 mL of Ecolume® (ICN). Nonspecific binding was determined in the presence of 10 μM (−)-nicotine and values were expressed as a percentage of total binding.

mice = test: Mouse Hot Plate Paradigm; assay type: in vivo; design: key to MED Hot plate model (μmol/kg, i.p.): NS = no significant effect observed relative to saline controls at the doses tested; conditions: 30 minutes prior to testing, 55° C.; for minimal effective dose: ip, 0.5 h, i.p., read-out: MED Hot plate model (μmol/kg, i.p.)
[2] = dog, in vivo; for AUD0. / Cmax / Tmax / t½: po; for Cmax / Tmax / t½: 200 nmol/kg
Method: Beagle dogs were fasted overnight prior to dosing but were permitted free access to water. Each of the prodrugs was administered to a group of three animals at a dose of 200 nmol/kg. The formulation was adminstered by oral gavage. The prodrugs were prepared as 200 nmol/ml (1 ml/kg) solutions in normal saline. Blood samples from a jugular vein of each dog prior to dosing and 0.17, 0.33, 0.5, 0.75, 1, 1.5, 2, 3, 4, 6 and 8 hours after drug administration.

[3] = [3H]-cytisine 1.25 nM, whole rat brain membranes, read-out: [3H] CYT Ki

CCc1cc(OC[C@@H]2CCN2)cnc1C [Example 36, 6-Ethyl-6-methyl-3-((2S)-azetidinylmethoxy)pyridine hydrochloride]
Ki [1, 3]: 40 pM
MED Hot plate model (μmol/kg, i.p.) (mice): NS

CCCCc1cc(OC[C@@H]2CCN2)cnc1Cl [Example 29, 3-Butyl-2-chloro-5-((2S)-azetidinylmethoxy)pyridine hydrochloride]
Ki [1, 3]: 160 pM
MED Hot plate model (μmol/kg, i.p.) (mice): NS

CCc1cc(OC[C@@H]2CCN2)cnc1Cl [Example 27, 2-Chloro-3-ethyl-5-((2S)-azetidinylmethoxy)pyridine hydrochloride]
Ki [1, 3]: 40 pM
MED Hot plate model (μmol/kg, i.p.) (mice): NS

CN1CC[C@H]1COc1ccc(C(F)F)nc1 [Example 113, 6-Difluoromethyl-3-((1-methyl-2-(S)-azetidinyl)methoxy)pyridine citrate]
Ki [1, 3]: 170 pM

Cl.Cl.c1cncc(OC[C@H]2CCN2)c1 [Example 6, (R)-3-(2-Azetidinylmethyloxy)pyridine dihydrochloride]
Ki [1]: 40 pM
MED Hot plate model (μmol/kg, i.p.) (mice): NS

CCOc1cncc(OC[C@@H]2CCN2)c1 [Example 120, 5-Ethoxy-3-(2-(S)-azetidinylmethoxy)pyridine tosylate]
Ki [1, 3]: 40 pM

C=Cc1cc(OC[C@@H]2CCN2)cnc1C [Example 35, 6-Methyl-5-vinyl-3-((2S)-azetidinylmethoxy)pyridine hydrochloride]
Ki [1, 3]: 220 pM
MED Hot plate model (μmol/kg, i.p.) (mice): NS

Cc1cc(OC[C@@H]2CCN2)cnc1F [Example 32, 5-((2S)-azetidinylmethoxy)-3-methyl-2-fluoropyridine benzoate]
Ki [1, 3]: 100 pM
MED Hot plate model (μmol/kg, i.p.) (mice): NS

Cc1ccc(C(=O)N2CC[C@@H]2COc2ccc(F)nc2)cc1 [Example 4-MeC6H4CO]
F* (%) efficiency of conversion [2]: 43.1%
AUD0. [2]: 29.85 ng·h/mL
Cmax [2]: 7.05 ng/mL
Tmax [2]: 0.8 h
t½ [2]: 2.4 h

Brc1ccc(OC[C@H]2CCN2)cn1 [Example 128, 5-(2-(R)-azetidinylmethoxy)-2-bromo-pyridine tosylate]
Ki [1, 3]: 170 pM

Cc1ncc(OC[C@@H]2CCN2)cc1Br [Example 34, 5-Bromo-6-methyl-3-((2S)-azetidinylmethoxy)pyridine dihydrochloride]
Ki [1, 3]: 20 pM
minimal effective dose (mice): 0.62 µmol/kg

Fc1ccc(OC[C@@H]2CCN2)c(F)n1 [Example 116, 2.6-Difluoro-3-(2-(S)-azetidinylmethoxy)pyridine tosylate]
Ki [1, 3]: 340 pM

Cc1ccc(OC[C@@H]2CCN2)cn1 [Example 20, 5-((2S)-Azetidinylmethyloxy)-2-methylpyridine dihydrochloride]
Ki [1, 3]: 60 pM
minimal effective dose (mice): 0.62 µmol/kg

COc1ccc(C(=O)N2CC[C@@H]2COc2ccc(F)nc2)cc1 [Example 4-MeOC6H4CO]
F* (%) efficiency of conversion [2]: 37.7%
AUD0. [2]: 26.09 ng·h/mL
Cmax [2]: 7.43 ng/mL
Tmax [2]: 0.8 h
t½ [2]: 2.0 h

Cc1ccc(OC[C@H]2CCN2)cn1 [Example 115, 6-Methyl-3-(2-(R)-azetidinylmethoxy)pyridine]
Ki [1, 3]: 70 pM

O=C(c1ccc([N+](=O)[O-])cc1)N1CC[C@@H]1COc1ccc(F)nc1 [Example 4-NO2C6H4CO]
F* (%) efficiency of conversion [2]: 27.1%
AUD0. [2]: 18.76 ng·h/mL
Cmax [2]: 6.01 ng/mL
Tmax [2]: 0.8 h
t½ [2]: 1.9 h

Clc1ncccc1OC[C@H]1CCN1 [Example 97, 2-Chloro-3-(2-(R)-azetidinylmethoxy)pyridine tosylate]
Ki [1, 3]: 85000 pM

Clc1cncc(OC[C@H]2CCN2)c1 [Example 114, 3-(2-(R)-Azetidinylmethoxy)-5-chloropyridine tosylate]
Ki [1, 3]: 120 pM

c1cncc(OC[C@@H]2CCN2)c1 [Example 7, (S)-3-(2-Azetidinylmethyloxy)pyridine dihydrochloride]
Ki [1]: 40 pM
minimal effective dose (mice): 6.2 µmol/kg

C=Cc1cc(OC[C@H]2CCN2)cnc1F [Example 129, 5-((2R)-Azetidinylmethoxy)-2-fluoro-3-vinylpyridine tosylate]
Ki [1, 3]: 90 pM

Fc1ncc(OC[C@@H]2CCN2)cc1Br [Example 31, 5-((2S)-azetidinylmethoxy)-3-bromo-2-fluoropyridine dibenzoic acid salt]
Ki [1, 3]: 30 pM
minimal effective dose (mice): 6.2 µmol/kg

COC(=O)c1ccc(C(=O)N2CC[C@@H]2COc2ccc(F)nc2)cc1 [4-MeO2CC6H4CO]
F* (%) efficiency of conversion [2]: 61.2%
AUD0. [2]: 42.37 ng·h/mL
Cmax [2]: 10.31 ng/mL
Tmax [2]: 0.8 h
t½ [2]: 1.8 h

N#Cc1ccc(OC[C@@H]2CCN2)cn1 [Example 123, 6-Cyano-3-(2(S)-azetidinylmethoxy)pyridine hydrochloride]
Ki [1, 3]: 1900 pM

C=CCc1cncc(OC[C@@H]2CCN2)c1 [Example 130, 3-(2-(S)-azetidinylmethoxy)-5-(3-propenyl)pyridine hydrochloride]
Ki [1, 3]: 40 pM

Clc1cncc(OC[C@@H]2CCN2)c1 [Example 21, 5-((2S)-Azetidinylmethyloxy)-3-chloropyridine dihydrochloride]
Ki [1, 3]: 40 pM
MED Hot plate model (μmol/kg, i.p.) (mice): NS

C=Cc1cc(OC[C@@H]2CCN2)cnc1Cl [Example 26, 2-Chloro-3-vinyl-5-((2S)-azetidinylmethoxy)pyridine hydrochloride]
Ki [1, 3]: 240 pM
minimal effective dose (mice): 1.9 µmol/kg

Cc1cc(OC[C@@H]2CCN2)cnc1Cl [Example 25, 2-Chloro-3-methyl-5-(2-(S)-azetidinylmethoxy)pyridine citrate]
Ki [1, 3]: 50 pM
minimal effective dose (mice): 0.062 µmol/kg

Cc1ccc(OC[C@@H]2CCN2)c(F)n1 [Example 117, 2-Fluoro-6-methyl-3-(2-(S)-azetidinylmethoxy)pyridine tosylate]
Ki [1, 3]: 170 pM

Cc1ccc(OC[C@H]2CCN2)c(F)n1 [Example 118, 2-Fluoro-6-methyl-3-(2-(R)-azetidinylmethoxy)pyridine tosylate]
Ki [1, 3]: 4800 pM

O=C(c1ccc(F)cc1)N1CC[C@@H]1COc1ccc(F)nc1 [Example 4-FC6H4CO]
F* (%) efficiency of conversion [2]: 13.5%
AUD0. [2]: 9.35 ng·h/mL
Cmax [2]: 3.25 ng/mL
Tmax [2]: 0.8 h
t½ [2]: 1.6 h

CCCc1cc(OC[C@@H]2CCN2)cnc1Cl [Example 28, 2-Chloro-3-propyl-5-((2S)-azetidinylmethoxy)pyridine hydrochloride]
Ki [1, 3]: 30 pM
MED Hot plate model (μmol/kg, i.p.) (mice): NS

CCc1cc(OC[C@@H]2CCN2)cnc1F [Example 126, 5-ethyl-6-fluoro-3-(2-(S)-azetidinylmethoxy)pyridine]
Ki [1, 3]: 70 pM

C=Cc1cncc(OC[C@@H]2CCN2)c1 [Example 22, 5-Vinyl-3-((2S)-Azetidinylmethyloxy)lpyridine dihydrochloride]
Ki [1, 3]: 970 pM

Cc1ncc(OC[C@H]2CCN2)cc1Br [Example 124, 3-(2-(R)-azetidinylmethoxy)-5-bromo-6-methylpyridine tosylate]
Ki [1, 3]: 30 pM

C=Cc1cc(OC[C@@H]2CCN2)cnc1F [Example 131, 5-(2-(S)-Azetidinylmethoxy)-3-ethenyl-2-fluoropyridine tosylate]
Ki [1, 3]: 130 pM

Clc1ncccc1OC[C@@H]1CCN1 [Example 121, 2-Chloro-3-(2-(S)-azetidinylmethoxy)pyridine hydrochloride]
Ki [1, 3]: 2300 pM

C#Cc1cc(OC[C@@H]2CCN2)cnc1Cl [Example 30, 2-Chloro-3-ethynyl-5-((2S)-azetidinylmethoxy)pyridine hydrochloride]
Ki [1, 3]: 40 pM
minimal effective dose (mice): 6.2 µmol/kg

O=C(c1ccccc1)N1CC[C@@H]1COc1ccc(F)nc1 [PhCO]
F* (%) efficiency of conversion [2]: 27.3%
AUD0. [2]: 18.89 ng·h/mL
Cmax [2]: 6.31 ng/mL
Tmax [2]: 0.6 h
t½ [2]: 1.8 h

O=C(c1ccc(Cl)cc1)N1CC[C@@H]1COc1ccc(F)nc1 [Example 4-ClC6H4CO]
F* (%) efficiency of conversion [2]: 26.9%
AUD0. [2]: 18.61 ng·h/mL
Cmax [2]: 4.54 ng/mL
Tmax [2]: 0.8 h
t½ [2]: 2.5 h

Fc1ncc(OCC2CCN2)cc1Cl (stereo not shown) [Example 33, 5-((29)-azetidinylmethoxy)-3-chloro-2-fluoropyridine tosylate]
Ki [1, 3]: 40 pM

Cc1cc(OC[C@H]2CCN2)cnc1Cl [Example 127, 2-Chloro-3-methyl-5-(2-(R)--azetidinylmethoxy)pyridine citrate]
Ki [1]: 60 pM

Fc1ncc(OC[C@H]2CCN2)cc1Br [Example 125, 5-bromo-6-fluoro-3-(2-(R)-azetidinylmethoxy)pyridine]
Ki [1]: 40 pM
